Laboratory results reported in publication PMC8429728, “TNK1 is a ubiquitin-binding and 14-3-3-regulated kinase that can be targeted to block tumor growth” (Nature Communications, 2021).
Like-named read-outs stand apart in the source and are kept apart here.

Columns and labels:
Assay in all cases: biochemical
Parameters in all cases: Reaction Biology 371-kinase panel at Km ATP, per cent enzyme activity relative to DMSO, single dose in duplicate
KSR2 = KSR2 (Homo sapiens, UniProt Q6VAB6); conditions: duplicate measurements, Km ATP
Procedure, shortened: (§1)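 First, kinases from a 371-member panel were exposed in vitro to 300 nM inhibitor. Next, % enzyme activity versus DMSO was computed. Finally, IC50s were derived by sigmoidal dose-response fitting with variable slope and a zero bottom constraint.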

LIMK2 = LIMK2 (Homo sapiens, UniProt P53671); conditions: duplicate measurements, Km ATP
Procedure, shortened: as §1

CK1a1L = target: T1, CK1a1L (Homo sapiens, UniProt Q8N752); conditions: duplicate measurements, Km ATP
T1 construct: gene CSNK1A1L
T1 sequence (Q8N752 whole entry): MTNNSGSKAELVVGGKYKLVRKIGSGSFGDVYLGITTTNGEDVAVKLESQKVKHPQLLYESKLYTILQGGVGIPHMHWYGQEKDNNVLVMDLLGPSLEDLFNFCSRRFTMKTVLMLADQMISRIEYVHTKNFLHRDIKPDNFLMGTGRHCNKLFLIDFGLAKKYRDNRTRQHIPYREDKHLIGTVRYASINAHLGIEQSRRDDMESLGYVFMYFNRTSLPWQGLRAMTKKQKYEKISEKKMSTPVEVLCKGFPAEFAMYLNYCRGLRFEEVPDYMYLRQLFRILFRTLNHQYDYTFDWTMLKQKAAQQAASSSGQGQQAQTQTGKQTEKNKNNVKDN
Procedure, shortened: as §1

SNARK/NUAK2 = SNARK/NUAK2 (Homo sapiens, UniProt Q9H093); conditions: duplicate measurements, Km ATP; read-out: % Enzyme Activity (relative to DMSO controls) / TP-0005801 (0.3µM) / Data 1
Procedure, shortened: as §1

SGK2 = SGK2 (Homo sapiens, UniProt Q9HBY8); conditions: duplicate measurements, Km ATP
Procedure, shortened: as §1

RSK1 = target: T2, RSK1 (Homo sapiens, UniProt Q15418); conditions: duplicate measurements, Km ATP
T2 construct: gene RPS6KA1
T2 sequence (Q15418 whole entry): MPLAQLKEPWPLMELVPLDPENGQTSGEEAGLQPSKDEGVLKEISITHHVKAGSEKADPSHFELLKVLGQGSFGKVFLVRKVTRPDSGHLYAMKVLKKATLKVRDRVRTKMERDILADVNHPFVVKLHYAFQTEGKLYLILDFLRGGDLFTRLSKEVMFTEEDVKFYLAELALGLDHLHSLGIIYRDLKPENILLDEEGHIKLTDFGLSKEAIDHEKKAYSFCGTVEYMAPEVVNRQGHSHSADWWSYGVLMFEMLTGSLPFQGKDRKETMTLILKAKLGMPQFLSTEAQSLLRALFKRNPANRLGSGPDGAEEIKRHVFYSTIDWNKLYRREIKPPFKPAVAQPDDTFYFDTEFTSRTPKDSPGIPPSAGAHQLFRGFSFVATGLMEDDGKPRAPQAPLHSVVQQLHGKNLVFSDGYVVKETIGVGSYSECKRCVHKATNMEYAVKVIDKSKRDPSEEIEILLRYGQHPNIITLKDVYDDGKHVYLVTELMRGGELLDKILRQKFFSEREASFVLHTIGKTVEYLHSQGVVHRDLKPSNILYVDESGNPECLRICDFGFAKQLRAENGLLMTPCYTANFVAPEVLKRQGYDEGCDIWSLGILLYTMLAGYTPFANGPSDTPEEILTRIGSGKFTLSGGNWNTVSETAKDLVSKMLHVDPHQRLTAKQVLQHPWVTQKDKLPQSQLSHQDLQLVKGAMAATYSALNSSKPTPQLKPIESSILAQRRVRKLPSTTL
Procedure, shortened: as §1

RSK4 = target: T3, RSK4 (Homo sapiens, UniProt Q9UK32); conditions: duplicate measurements, Km ATP
T3 construct: gene RPS6KA6
Procedure, shortened: as §1

MNK2 = target: T4, MNK2 (Homo sapiens, UniProt Q9HBH9); conditions: duplicate measurements, Km ATP
T4 construct: gene MKNK2
Procedure, shortened: as §1

CAMK2g = CAMK2g (Homo sapiens, UniProt Q13555); conditions: duplicate measurements, Km ATP
Procedure, shortened: as §1

AURORA C = target: T5, AURORA C (Homo sapiens, UniProt Q9UQB9); conditions: duplicate measurements, Km ATP
T5 construct: gene AURKC
Procedure, shortened: as §1

IRAK4 = IRAK4 (Homo sapiens, UniProt Q9NWZ3); conditions: duplicate measurements, Km ATP
Procedure, shortened: as §1

CDK6/cyclin D1 = CDK6/cyclin D1 (Homo sapiens, UniProt Q00534); conditions: duplicate measurements, Km ATP
Procedure, shortened: as §1

DYRK2 = DYRK2 (Homo sapiens, UniProt Q92630); conditions: duplicate measurements, Km ATP
Procedure, shortened: as §1

MYLK3 = MYLK3 (Homo sapiens, UniProt Q32MK0); conditions: duplicate measurements, Km ATP
Sequence of MYLK3 (Q32MK0 whole entry): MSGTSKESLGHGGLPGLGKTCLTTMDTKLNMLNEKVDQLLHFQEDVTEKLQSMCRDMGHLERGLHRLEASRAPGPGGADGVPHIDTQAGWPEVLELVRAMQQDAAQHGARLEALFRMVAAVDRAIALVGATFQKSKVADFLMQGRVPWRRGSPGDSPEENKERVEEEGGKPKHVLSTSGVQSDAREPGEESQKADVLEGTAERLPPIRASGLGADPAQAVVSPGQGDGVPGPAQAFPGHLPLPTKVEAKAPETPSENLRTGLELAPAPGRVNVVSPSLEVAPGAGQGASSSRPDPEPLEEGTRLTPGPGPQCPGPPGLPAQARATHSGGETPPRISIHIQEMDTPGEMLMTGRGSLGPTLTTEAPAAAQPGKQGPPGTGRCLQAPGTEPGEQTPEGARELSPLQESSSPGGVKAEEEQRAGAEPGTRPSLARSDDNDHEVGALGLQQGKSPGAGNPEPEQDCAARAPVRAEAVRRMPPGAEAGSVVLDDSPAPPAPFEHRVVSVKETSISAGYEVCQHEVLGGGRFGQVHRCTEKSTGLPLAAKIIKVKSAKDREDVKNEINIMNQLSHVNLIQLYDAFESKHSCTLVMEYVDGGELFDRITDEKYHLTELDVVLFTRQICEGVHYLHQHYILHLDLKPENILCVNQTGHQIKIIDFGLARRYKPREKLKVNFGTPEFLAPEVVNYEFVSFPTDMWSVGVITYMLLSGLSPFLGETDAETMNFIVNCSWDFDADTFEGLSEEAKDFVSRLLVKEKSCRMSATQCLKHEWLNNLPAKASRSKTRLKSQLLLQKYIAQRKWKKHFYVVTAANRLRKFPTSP
Procedure, shortened: as §1

PKCzeta = target: T6, PKCzeta (Homo sapiens, UniProt Q05513); conditions: duplicate measurements, Km ATP
T6 construct: gene PRKCZ
T6 sequence (Q05513 whole entry): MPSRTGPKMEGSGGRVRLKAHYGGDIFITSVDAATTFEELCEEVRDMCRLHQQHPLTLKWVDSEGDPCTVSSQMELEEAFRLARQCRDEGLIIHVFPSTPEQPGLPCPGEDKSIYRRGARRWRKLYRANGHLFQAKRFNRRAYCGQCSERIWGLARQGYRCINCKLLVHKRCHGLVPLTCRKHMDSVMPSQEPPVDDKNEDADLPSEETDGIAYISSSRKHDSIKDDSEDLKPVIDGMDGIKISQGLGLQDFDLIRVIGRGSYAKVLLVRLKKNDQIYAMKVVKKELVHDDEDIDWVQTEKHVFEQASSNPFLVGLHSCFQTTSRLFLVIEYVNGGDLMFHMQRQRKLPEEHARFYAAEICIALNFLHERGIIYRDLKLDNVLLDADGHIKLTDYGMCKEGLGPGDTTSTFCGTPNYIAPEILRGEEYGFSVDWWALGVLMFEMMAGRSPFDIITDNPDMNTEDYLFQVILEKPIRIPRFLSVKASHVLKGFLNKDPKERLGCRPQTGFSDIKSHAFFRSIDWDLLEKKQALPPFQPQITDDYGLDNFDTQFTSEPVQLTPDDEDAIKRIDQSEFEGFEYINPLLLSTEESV
Procedure, shortened: as §1

WNK3 = WNK3 (Homo sapiens, UniProt Q9BYP7); conditions: duplicate measurements, Km ATP
Procedure, shortened: as §1

CHK2 = target: T7, CHK2 (Homo sapiens, UniProt O96017); conditions: duplicate measurements, Km ATP
T7 construct: gene CHEK2
Procedure, shortened: as §1

HGK/MAP4K4 = HGK/MAP4K4 (Homo sapiens, UniProt O95819); conditions: duplicate measurements, Km ATP
Sequence of HGK/MAP4K4 (O95819 whole entry): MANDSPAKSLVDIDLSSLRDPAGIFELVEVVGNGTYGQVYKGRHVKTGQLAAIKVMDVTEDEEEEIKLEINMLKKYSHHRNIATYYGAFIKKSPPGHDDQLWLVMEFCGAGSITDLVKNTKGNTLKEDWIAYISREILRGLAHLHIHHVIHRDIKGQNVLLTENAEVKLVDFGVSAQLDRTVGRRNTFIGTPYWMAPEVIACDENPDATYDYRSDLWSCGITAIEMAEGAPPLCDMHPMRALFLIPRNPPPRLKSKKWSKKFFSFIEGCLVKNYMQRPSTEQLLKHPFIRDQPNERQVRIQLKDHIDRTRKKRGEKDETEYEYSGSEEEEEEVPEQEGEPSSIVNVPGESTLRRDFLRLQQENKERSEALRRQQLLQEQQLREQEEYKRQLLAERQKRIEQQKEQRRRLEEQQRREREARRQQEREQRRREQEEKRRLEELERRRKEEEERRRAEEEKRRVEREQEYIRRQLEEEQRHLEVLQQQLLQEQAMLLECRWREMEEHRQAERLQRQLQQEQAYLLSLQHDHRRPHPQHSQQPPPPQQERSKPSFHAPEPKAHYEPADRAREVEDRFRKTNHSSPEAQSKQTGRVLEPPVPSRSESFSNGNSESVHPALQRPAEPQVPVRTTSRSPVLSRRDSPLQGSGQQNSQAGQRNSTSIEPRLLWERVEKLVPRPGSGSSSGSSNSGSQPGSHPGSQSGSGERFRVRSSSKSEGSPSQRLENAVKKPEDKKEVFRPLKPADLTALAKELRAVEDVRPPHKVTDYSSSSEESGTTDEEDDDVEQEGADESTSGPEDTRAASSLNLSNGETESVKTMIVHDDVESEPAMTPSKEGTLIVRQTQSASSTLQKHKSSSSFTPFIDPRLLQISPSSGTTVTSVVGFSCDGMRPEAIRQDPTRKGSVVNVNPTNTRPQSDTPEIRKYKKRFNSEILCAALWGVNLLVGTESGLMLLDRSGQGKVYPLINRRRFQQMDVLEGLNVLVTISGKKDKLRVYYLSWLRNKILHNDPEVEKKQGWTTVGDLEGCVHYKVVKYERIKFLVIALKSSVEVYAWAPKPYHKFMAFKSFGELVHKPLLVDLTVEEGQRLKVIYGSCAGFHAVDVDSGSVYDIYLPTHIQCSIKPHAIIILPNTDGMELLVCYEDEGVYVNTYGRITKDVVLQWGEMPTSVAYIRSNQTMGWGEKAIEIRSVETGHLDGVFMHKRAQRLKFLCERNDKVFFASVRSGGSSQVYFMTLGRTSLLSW
Procedure, shortened: as §1

JAK2 = JAK2 (Homo sapiens, UniProt O60674); conditions: duplicate measurements, Km ATP
Sequence of JAK2 (O60674 whole entry): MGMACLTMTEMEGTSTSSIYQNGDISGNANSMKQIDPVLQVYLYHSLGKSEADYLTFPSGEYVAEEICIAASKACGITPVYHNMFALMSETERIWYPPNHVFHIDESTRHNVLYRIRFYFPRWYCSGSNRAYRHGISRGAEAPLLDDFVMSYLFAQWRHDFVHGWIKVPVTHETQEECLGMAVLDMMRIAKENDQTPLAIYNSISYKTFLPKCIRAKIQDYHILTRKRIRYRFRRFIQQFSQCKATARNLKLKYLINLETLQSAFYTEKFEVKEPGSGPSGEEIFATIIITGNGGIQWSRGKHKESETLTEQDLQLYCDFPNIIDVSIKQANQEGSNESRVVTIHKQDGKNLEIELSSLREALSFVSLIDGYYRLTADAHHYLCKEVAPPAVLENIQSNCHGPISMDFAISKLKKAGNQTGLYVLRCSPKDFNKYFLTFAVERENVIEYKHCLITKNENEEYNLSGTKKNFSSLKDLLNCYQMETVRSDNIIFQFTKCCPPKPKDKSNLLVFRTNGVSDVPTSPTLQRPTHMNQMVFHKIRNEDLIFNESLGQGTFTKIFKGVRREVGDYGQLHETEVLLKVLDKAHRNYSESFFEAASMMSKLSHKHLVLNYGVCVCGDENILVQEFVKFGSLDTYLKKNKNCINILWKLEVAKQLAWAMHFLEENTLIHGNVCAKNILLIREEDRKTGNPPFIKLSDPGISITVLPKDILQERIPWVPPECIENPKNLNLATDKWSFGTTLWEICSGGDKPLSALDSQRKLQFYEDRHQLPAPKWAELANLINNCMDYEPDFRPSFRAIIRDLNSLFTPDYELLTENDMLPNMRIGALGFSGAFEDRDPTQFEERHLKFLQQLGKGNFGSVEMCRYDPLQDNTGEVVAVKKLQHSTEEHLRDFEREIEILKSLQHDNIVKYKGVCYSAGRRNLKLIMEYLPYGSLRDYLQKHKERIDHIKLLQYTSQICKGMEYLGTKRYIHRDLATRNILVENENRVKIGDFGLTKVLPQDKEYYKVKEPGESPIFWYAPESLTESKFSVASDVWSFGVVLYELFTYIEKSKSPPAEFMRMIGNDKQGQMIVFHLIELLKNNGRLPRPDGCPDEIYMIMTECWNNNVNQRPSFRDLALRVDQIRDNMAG
Procedure, shortened: as §1

TYK2 = TYK2 (Homo sapiens, UniProt P29597); conditions: duplicate measurements, Km ATP
Procedure, shortened: as §1

[1] = read-out: % Enzyme Activity (relative to DMSO controls) / TP-0005801 (0.3µM) / Data 1
[2] = read-out: % Enzyme Activity (relative to DMSO controls) / TP-0005801 (0.3µM) / Data 2

- remaining activity at 0.3 µM (KSR2; [1]): 96.9%
- remaining activity at 0.3 µM (KSR2; [2]): 94.2%
- remaining activity at 0.3 µM (LIMK2; [1]): 114%
- remaining activity at 0.3 µM (LIMK2; [2]): 108%
- remaining activity at 0.3 µM (CK1a1L; [1]): 101%
- remaining activity at 0.3 µM (CK1a1L; [2]): 99.8%
- remaining activity at 0.3 µM (SNARK/NUAK2): 30.2%
- remaining activity at 0.3 µM (SGK2; [1]): 93.7%
- remaining activity at 0.3 µM (SGK2; [2]): 92.7%
- remaining activity at 0.3 µM (RSK1; [1]): 76.2%
- remaining activity at 0.3 µM (RSK1; [2]): 74.2%
- remaining activity at 0.3 µM (RSK4; [1]): 79.4%
- remaining activity at 0.3 µM (RSK4; [2]): 77.9%
- remaining activity at 0.3 µM (MNK2; [1]): 89.8%
- remaining activity at 0.3 µM (MNK2; [2]): 89%
- remaining activity at 0.3 µM (CAMK2g; [1]): 157%
- remaining activity at 0.3 µM (CAMK2g; [2]): 153%
- remaining activity at 0.3 µM (AURORA C; [1]): 97%
- remaining activity at 0.3 µM (AURORA C; [2]): 92.9%
- remaining activity at 0.3 µM (IRAK4; [1]): 90.6%
- remaining activity at 0.3 µM (IRAK4; [2]): 89.2%
- remaining activity at 0.3 µM (CDK6/cyclin D1; [1]): 88.2%
- remaining activity at 0.3 µM (CDK6/cyclin D1; [2]): 87.5%
- remaining activity at 0.3 µM (DYRK2; [1]): 94.2%
- remaining activity at 0.3 µM (DYRK2; [2]): 90.5%
- remaining activity at 0.3 µM (MYLK3; [1]): 110%
- remaining activity at 0.3 µM (MYLK3; [2]): 109%
- remaining activity at 0.3 µM (PKCzeta; [1]): 97.2%
- remaining activity at 0.3 µM (PKCzeta; [2]): 97.1%
- remaining activity at 0.3 µM (WNK3; [1]): 87.5%
- remaining activity at 0.3 µM (WNK3; [2]): 86.5%
- remaining activity at 0.3 µM (CHK2; [1]): 103%
- remaining activity at 0.3 µM (CHK2; [2]): 102%
- remaining activity at 0.3 µM (HGK/MAP4K4; [1]): 103%
- remaining activity at 0.3 µM (HGK/MAP4K4; [2]): 102%
- remaining activity at 0.3 µM (JAK2; [1]): 82.8%
- remaining activity at 0.3 µM (JAK2; [2]): 77.7%
- remaining activity at 0.3 µM (TYK2; [1]): 100%
- remaining activity at 0.3 µM (TYK2; [2]): 96.7%
SMILES: COc1cc(N2CCN(C)CC2)c(C)cc1Nc1ncc(Br)c(Nc2cccnc2N(C)C)n1 [TP-5801]
